We go through six molecules from article PMC6235002, “Born to sense: biophysical analyses of the oxygen sensing prolyl hydroxylase from the simplest animal Trichoplax adhaerens” (Hypoxia, 2018).

In data set [1] the target is T1, TaPHD^64-300 (Trichoplax adhaerens, UniProt I6QVT6). The experiment in a line: MALDI-TOF-MS peptide hydroxylation steady-state kinetics, TaPHD^64-300. It is filed as biochemical. Conditions: for Km / kcat (peptide substrate): peptide varied, 3.5–7.0 µM enzyme, 50 µM (NH4)2Fe(II)(SO4)2, 4 mM ascorbate, 300 µM 2OG; for Km: 50 mM Tris pH 7.5, Michaelis-Menten fit, ± SD, n=3, read-out: Km (peptide substrate); for kcat (peptide substrate): 50 mM Tris pH 7.5, ± SD, n=3. On the procedure: (§1) Notes: (A) Sequence alignment of TaHIFa, HsHIFa, and substrates of PHD-like enzymes in Dictyostelium discoideum (DdSkp1) and Pseudomonas putida (PpEF-Tu). […] Peptide hydroxylation was analyzed by MALDI-MS; the apparent non-enzymatic Met oxidation was subtracted. Data were fitted with the Michaelis-Menten equation using GraphPad Prism® (errors are indicated as standard deviations, n=3).

Data set [2] addresses T2, HsPHD2^181-426 (Homo sapiens, UniProt Q9GZT9).
T2 construct: compared to the truncated human PHD isoform 2 (HsPHD2^181-426)
The experiment in a line: MALDI-TOF-MS peptide hydroxylation steady-state kinetics, HsPHD2^181-426. The format is biochemical. Conditions: peptide varied, 3.5–7.0 µM enzyme, 50 µM (NH4)2Fe(II)(SO4)2, 4 mM ascorbate, 300 µM 2OG; for Km: 50 mM Tris pH 7.5, Michaelis-Menten fit, ± SD, n=3, read-out: Km (peptide substrate); for kcat (peptide substrate): 50 mM Tris pH 7.5, ± SD, n=3. On the procedure:
as §1

In data set [3] the target is T1, TaPHD^64-300. The experiment in a line: 1D CLIP HSQC NMR binding studies with [^13C]-prolyl-labelled reporter ODD peptides. To be noted: 1:1 enzyme:ODD, 50 µM [^13C]-proline-labelled peptide, 50 µM TaPHD, Zn(II), 50 µM 2OG, 50 mM Tris-D11 pH 7.5, 10% D2O/90% H2O, n=3. The procedure: as §1
To more directly investigate the extent to which TaPHD^64-300 can bind HsHIF1α NODD and CODD, we performed 1D CLIP HSQC NMR binding studies with HsHIF1α CODD and HsHIF1α NODD peptides labeled with [^13C] at the target prolyl residues which undergo hydroxylation during catalysis (Figure 2C).

Data set [4] concerns the target T2, HsPHD2^181-426. Set-up: method as in PMID 25120187. To be noted: previous studies, read-out: Km (peptide substrate), previous studies; cited from earlier work.
For data set [5], the system named is HsPHD2 P317R. Conditions: HsPHD2 P317R variant; Figure S4, reference not given; cited from earlier work. The text has this:
(§2) In both the TaPHD.TaODD and HsPHD2.CODD[34] structures, a salt-bridge between an arginine residue in the C-terminal α4-helix and an aspartate residue in the C-terminus of the respective peptide (R292TaPHD/D494TaODD, R396HsPHD2/D571HsHIF1α CODD) is formed (Figure S4). However, this salt-bridge is not present in the HsPHD2.NODD complex structure, where the HsHIF1α NODD peptide is positioned further from the C-terminal helix and interacts with the C-terminal region of HsPHD2 via hydrophobic contacts. Studies with the TaODD and HsPHD2 variants, including with HsPHD2 P317RHsPHD2 and R396THsPHD2, wh ...

Data set [6] has as its target T1, TaPHD^64-300. Conditions: TaPHD with natural substrate (500 µM); 20 µM enzyme, 125 µM Fe(II), 1 mM ascorbate, 400 µM 2OG, 50 mM Tris-D11 pH 7.5; ^1H NMR.
Data set [7] deals with T1, TaPHD^64-300. The experiment in a line: Steady-state O2-dependence of TaPHD (MALDI-TOF-MS). It is filed as biochemical. To be noted: TaPHD^64-300 with TaODD 25mer. On the procedure: as §1
In order for the PHDs to act as hypoxia sensors in cells, their activity must be limited by oxygen availability. […] In order to study the O2 dependence of the TaPHD-catalyzed reaction, steady-state kinetics, using reported experimental conditions for HsPHD2;[29] were conducted. TaPHD^64-300 was reacted with its peptidic substrate in sealed glass-vials under varied oxygen concentrations,[29] the initial rates of TaODD 25mer hydroxylation were determined by MALDI–TOF-MS (Figure 2F and G).

Data set [8] concerns HsPHD2. To be noted: read-out: Km (O2); cited from earlier work.
Data set [9] has as its target T1, TaPHD^64-300. To be noted: relative to TaODD 25mer and CODD 19mer; cited from earlier work. The text has this: The HIF system in T. adhaerens is apparently markedly simpler than in humans because it contains only one PHD (TaPHD), and one HIFα isoform with a single ODD (TaODD, Figure 1A).[16] […] To further investigate the substrate preferences of TaPHD^64–300, its affini ...

Data set [10] concerns HsPHD2 R396T. To be noted: HsPHD2 R396T variant; Figure S4, reference not given; cited from earlier work.
Text: as §2

Substrate in data set [11]: O=C(O)CCC(=O)C(=O)O
The experiment in a line: MALDI-TOF-MS peptide hydroxylation steady-state kinetics, TaPHD^64-300. It is filed as biochemical, Trichoplax adhaerens. Conditions: other: TaPHD^64-300, 2OG varied, 100 µM peptide, 50 µM (NH4)2Fe(II)(SO4)2, 4 mM ascorbate, 50 mM Tris pH 7.5, ± SD, n=3, 37.0 °C.

Entries after “also recorded” stand apart in the source; their conditions may differ. Where two headings read alike, the source gives them in different places. Some results are limits rather than exact numbers.

T2 sequence (Q9GZT9 181-426): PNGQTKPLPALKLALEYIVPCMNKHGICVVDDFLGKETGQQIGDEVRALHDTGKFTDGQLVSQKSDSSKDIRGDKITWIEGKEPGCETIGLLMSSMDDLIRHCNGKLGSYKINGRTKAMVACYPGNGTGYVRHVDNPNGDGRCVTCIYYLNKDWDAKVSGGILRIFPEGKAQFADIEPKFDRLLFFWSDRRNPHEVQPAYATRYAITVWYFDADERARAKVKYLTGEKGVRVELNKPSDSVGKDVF

As a reminder, the Km is the substrate concentration at which the rate is half of its maximum. As for “DLDLEMLAPYIPMDDDFQL-NH2 [HsHIF1α CODD 19mer, 19mer peptide of the human HIF1α C-terminal ODD]”, in [1], the “hydroxylation by TaPHD (in words)” value was “efficiently catalyzes the hydroxylation”, the Km was 15.1 ± 2.2 µM and the “kcat (peptide substrate)” value worked out at 0.012 ± 0.001 s⁻¹. In addition, in data set [2], the Km amounted to 10.8 ± 1.9 µM and the “kcat (peptide substrate)” value is 0.027 ± 0.001 s⁻¹. The “binding to TaPHD (in words)” value in [3] is given as “higher binding affinity of TaPHD for HsHIF1α CODD over NODD; also recorded: apparently completely bound”. The Km in data set [4] is 9 ± 3 µM. For the same molecule, in [5], the “ODD selectivity of HsPHD2 P317R (in words)” value is reported as “selective for CODD”.

On to `O=C(O)CCC(=O)C(=O)O` [2OG, 2-oxoglutarate], for which the “2OG decarboxylation in presence of substrate” value in data set [6] is recorded as “strongly increased in presence of substrate”.

For `O=O` [O2, oxygen], the Michaelis constant (Km) in data set [7] (4 µM enzyme, 100 µM TaODD, 50 µM Fe(II), 300 µM 2OG, 4 mM ascorbate, 50 mM Tris pH 7.5, 37°C, varied % O2, n=3) was above 400 µM; in [8], above 400 µM. Also, the “O2 saturation (in words)” value in [7] (at 60% O2 level, 37°C, pH 7.5) is recorded as “No saturation of O2 was reached”.

Regarding “DALTLLAPAAGDTIISLDF-NH2 [HsHIF1α NODD 19mer, 19mer peptide of the human HIF1α N-terminal ODD]”, in data set [1], the “hydroxylation by TaPHD (in words)” value is on record as “not turned over above background level”. Also, the “hydroxylation by TaPHD, earlier report (in words)” value in data set [9] was “hydroxylated less efficiently”. Moreover, in [10], the “ODD selectivity of HsPHD2 R396T (in words)” value is “NODD”.

In the case of “PINEKEDYDDLAPFVPPPSFDNRLY-NH2 [TaODD 25mer, 25mer peptide of the single ODD of T. adhaerens HIFα, natural substrate of TaPHD]”, in [1], the “hydroxylation by TaPHD (in words)” value is on record as “efficiently catalyzes the hydroxylation”, the Km was found to be 11.5 ± 1.8 µM and the “kcat (peptide substrate)” value was found to be 0.026 ± 0.001 s⁻¹. In addition, in data set [2], the Km came out at 40.5 ± 4.9 µM and the “kcat (peptide substrate)” value was 0.035 ± 0.002 s⁻¹.

B1: TaPHD^64-300 (Trichoplax adhaerens) (protein)
chain: MDERRPKIGCDKTGLALEKTWQLQKNERLSNMVVNQLNTNGFCIINNFLGSSCSTEVLQQVLNLYQSGVFSNGQLARNVSVNRIRGDKIAWIGGDERGCEAIKYLSSCVDSLISRCNGRLGNYMITGRTKCMVACYPGSGLGYIRHIDNPNRDGRCVTVLYYLNPNWNSQDCGGQLWLYPNNENKVVKIDPIFDRLLLFWSDRRNPHEVKPAYAMRYAITLWYFDEKERALSSQNGT
With B1, in data set [11], the Km is 1.9 ± 0.3 µM.
